According to patent US9914910B2, “Methods of preserving and protecting pancreatic beta cells and treating or preventing diabetes by inhibiting NOX-1” (Eastern Virginia Medical School, priority 2013, dated 2018):

Experiments:
[1] = tested on: NOX-1 gene expression in beta cells; assay: Inflammatory cytokine-induced gene expression in beta cells; assay type: cell-based
Excerpt: Inflammatory cytokines (PIC; IFNγ, TNFα, IL-1β)) induce expression of NOX-1 and MCP-1 in beta cells. Elevated NOX-1 is associated with beta cell dysfunction and NOX-1 expression is associated with feed-forward generation of reactive oxygen species. […] Shown are fold increase, *p<0.05.
Feed-forward activation of NOX-1 can also be reduced with siRNA. Inflammatory cytokines (PIC; IFNγ, TNFα, IL-1β) induce the gene expression of NOX-1 that is further regulated in a feed-forward manner involving reactive oxygen species generated by NOX-1.
Compounds that inhibit interleukin-12, interleukin-23 and/or STAT4 signaling disrupt NOX-1 upregulation by inflammatory cytokines.

beta cells [2] = assay: Static glucose-stimulated-insulin-secretion after PIC; assay type: cell-based; conditions: 100 nM, 3 mM vs 16 mM glucose
Method: Pyrazolopyridine dione compound class of dual selective NOX1/4 inhibitors were also evaluated on preservation of beta cell function and survival with concomitant exposure to inflammatory cytokines. Two NOX1/4 pyrazolopyridine dione compounds C1 and C2 (Methyl-2-phenyl-5-(2-pyridinylmethyl)-1H-pyrazolo[4,3-c]pyridine-3,6(2H,5H)-dione and 5-Benzyl-4-methyl-2-phenyl-1H-pyrazolo[4,3-c]pyridine-3,6(2H,5H)-dione, respectively) were assessed at 100 nM. […] Inflammatory cytokines (PIC; IFNγ, TNFα, IL-1β)) abolished this response. The glucose-stimulated-insulin-secretion response was preserved in the presence of inflammatory cytokines by pyrazolopyridine dione compounds C1 and C2. *p<0.05, **p<0.01.

[3] = mice, dosing 1000 mg/Kg per os; cited from earlier work
[4] = tested on: NOX-1 gene expression in primary mouse islets; assay: PIC-induced NOX-1 gene expression (RT-PCR); assay type: cell-based; conditions: NCTT-1 100 nM, ML171 1 μM
Excerpt: Human donor islets were obtained from integrated islet distribution project (http://iidp.coh.org) and cultured in CMRL media (Mediatech, Manassas, Va.). Mouse islets were freshly isolated from 8-week old male C57BL/6J mice (Jackson Laboratory, Bar Harbor, Me.) by common bile duct cannulation and collagenase digestion. Islets were hand picked prior to use. […] Total RNA was isolated using the RNeasy Mini Kit (Qiagen, Valencia, Calif.) and cDNA prepared using MMLV reverse transcriptase (Life Technologies) and random hexamers (Life Technologies). Jump Start Taq polymerase (Life Technologies) was used in PCR reactions. Primers used with SYBR Green 1 (Molecular Probes, Carlsbad, Calif.) probes: […] GAPDH forward [NT] ID NO: 3); GAPDH reverse [NT] NO: 4). RT-PCR reactions were performed in triplicate (CFX96 Bio-Rad, Hercules, Calif.). Taqman primers (Life Technologies) were also used.

[5] = tested on: MCP-1, IL-12p40, IL-12 p35, IFNγ gene expression in primary mouse islets; assay: Cytokine-induced target gene expression (real time PCR); assay type: cell-based; conditions: NCTT-1 100 nM, ML171 1 μM
Method: (§1) Total RNA was isolated using the RNeasy Mini Kit (Qiagen, Valencia, Calif.) and cDNA prepared using MMLV reverse transcriptase (Life Technologies) and random hexamers (Life Technologies). Jump Start Taq polymerase (Life Technologies) was used in PCR reactions. […] RT-PCR reactions were performed in triplicate (CFX96 Bio-Rad, Hercules, Calif.). Taqman primers (Life Technologies) were also used. Data was normalized to the housekeeping gene GAPDH and analyzed using the 2-ΔΔCT method.
Data is quantitative real time PCR gene expression analysis from triplicate experiments performed in replicate. Fold induction in gene expression over control (non cytokine-treated) islets is graphed.

[6] = tested on: MCP-1 expression in INS-1; assay: Cytokine-induced MCP-1 gene expression (real time PCR); assay type: cell-based, rat; conditions: INS-1, 10 nM
Method: as §1
Data is quantitative real time PCR gene expression analysis from triplicate experiments performed in replicate.

[7] = tested on: interleukin-12 and interleukin-23 production; conditions: cited from earlier work
NOX-1 = target: T1, NOX-1 (Homo sapiens, UniProt Q9Y5S8); conditions: cited from earlier work
T1 sequence (Q9Y5S8 1-564): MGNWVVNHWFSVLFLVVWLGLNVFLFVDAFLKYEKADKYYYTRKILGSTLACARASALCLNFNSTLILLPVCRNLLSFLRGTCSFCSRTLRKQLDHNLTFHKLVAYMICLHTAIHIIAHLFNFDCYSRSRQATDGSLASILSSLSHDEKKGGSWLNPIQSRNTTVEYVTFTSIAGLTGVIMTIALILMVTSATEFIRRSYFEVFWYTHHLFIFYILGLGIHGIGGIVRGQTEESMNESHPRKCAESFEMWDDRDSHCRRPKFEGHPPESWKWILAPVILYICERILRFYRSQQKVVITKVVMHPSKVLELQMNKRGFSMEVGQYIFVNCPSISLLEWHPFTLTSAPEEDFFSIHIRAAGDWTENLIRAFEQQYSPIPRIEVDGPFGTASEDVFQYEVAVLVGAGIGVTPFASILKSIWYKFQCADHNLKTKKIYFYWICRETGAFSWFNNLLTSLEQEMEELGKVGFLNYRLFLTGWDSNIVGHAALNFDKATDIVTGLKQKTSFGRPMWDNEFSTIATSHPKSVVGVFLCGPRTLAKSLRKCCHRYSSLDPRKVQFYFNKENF
T1 sequence (P13498 1-195 partner): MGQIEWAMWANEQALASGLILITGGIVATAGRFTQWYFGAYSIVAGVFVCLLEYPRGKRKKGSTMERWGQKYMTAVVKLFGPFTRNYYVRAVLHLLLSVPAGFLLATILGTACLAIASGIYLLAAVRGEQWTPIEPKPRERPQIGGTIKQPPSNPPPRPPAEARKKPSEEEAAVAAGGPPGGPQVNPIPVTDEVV

beta cells [8] = assay: Pro-caspase 3 cleavage after PIC, beta cell survival; assay type: cell-based; conditions: C1 100 nM, ML171 10 μM
Method: (§2) Loss of beta cell viability in response to inflammatory cytokines was assessed by measurement of caspase 3 activation and quantified microscopy. […] Measured by pro-caspase 3 cleavage (A) or quantified microscopy of YO-PRO-1 stained cells (B). […] Shown are RFU from fluorescent capase3 substrate, ##p<0.01 relative to control; *p<0.05; **p<0.01 relative to PIC (A) and Microscopic apoptotic index ###p<0.001 relative to control; ***p<0.001; **p<0.01 relative to PIC (B).

beta cells [9] = assay: Quantified microscopy of YO-PRO-1 stained cells after PIC; assay type: cell-based; conditions: C1 100 nM, ML171 10 μM
Method: as §2

Compound: Cc1c2c(=O)n(-c3ccccc3)[nH]c2cc(=O)n1Cc1ccccc1 [C2, 5-Benzyl-4-methyl-2-phenyl-1H-pyrazolo[4,3-c]pyridine-3,6(2H,5H)-dione]
- inflammatory cytokine-induced gene expression (NOX-1 and MCP-1) [1]: dose-related inhibition
- glucose-stimulated-insulin-secretion response with PIC (beta cells [2]): preserved

Compound: Cc1c2c(=O)n(-c3ccccc3Cl)[nH]c2cc(=O)n1Cc1ccccn1 [GKT-136901]
- tolerability [3]: well tolerated

Compound: Cc1c2c(=O)n(-c3ccccc3)[nH]c2cc(=O)n1Cc1ccccn1 [NCTT-1]
- induction of gene NOX-1 by PIC [4]: attenuated
- induction of gene IFNγ by PIC [5]: attenuated
- induction of gene IL-12 p35 by PIC [5]: attenuated
- induction of gene IL-12p40 by PIC [5]: attenuated
- induction of gene MCP-1 by PIC [5]: attenuated
- cytokine-induced MCP-1 expression [6]: attenuated cytokine-induced MCP-1 expression

Compound: Cc1cccc(/C=N/Nc2cc(N3CCOCC3)nc(OCCc3ccccn3)n2)c1 [STA 5326, 6-morpholino-N-((E)-m-tolylmethyleneamino)-2-(2-(2-pyridyl)ethoxy)pyrimidin-4-amine]
- induction of NOX-1 gene expression by inflammatory cytokines ([1]; 1 μM): inhibited
- interleukin-12 and interleukin-23 production [7]: inhibits interleukin-12 and interleukin-23 production

Compound: COc1cc(C(C)=O)ccc1O [apocynin]
- selectivity among NOX isotypes (in words) (NOX-1): non-selective

Compound: c1ccc2c(c1)[I+]c1ccccc1-2 [diphenylene iodonium]
- selectivity among NOX isotypes (in words) (NOX-1): non-selective

Compound: Methyl-2-phenyl-5-(2-pyridinylmethyl)-1H-pyrazolo[4,3-c]pyridine-3,6(2H,5H)-dione [C1]
- inflammatory cytokine-induced cell death, pro-caspase 3 cleavage (beta cells [8]): significantly protected
- inflammatory cytokine-induced cell death, YO-PRO-1 microscopic apoptotic index (beta cells [9]): significantly protected
- inflammatory cytokine-induced gene expression (NOX-1 and MCP-1) [1]: dose-related inhibition
- glucose-stimulated-insulin-secretion response with PIC (beta cells [2]): preserved
